Measurements reported in patent US8987273B2, “Substituted imidazo[1,2-B]pyridazines” (Bayer Intellectual Property GmbH, priority 2010, dated 2015).

Tests used:
[1] = test system: phospho-AKT at S473 in KPL4 breast tumour cell line; experiment: Cellular p-AKT1/2/3-S473 assay; type: cell-based; conditions: KPL4 cells, 2 hours treatment; median; read-out: pAKT-S743 median IC50
Experimental: The molecular mechanism of action was investigated in a set of experiments to assess the inhibition of the PI3K-AKT-mTOR pathway in responsive cell lines such as KPL4 breast tumour cell line (PIK3CAH1047R, HER2O/E and hormone independent). The phospho-substrates of PI3K-AKT-mTOR axis were used as the read-outs to reflect pathway inhibition. Cells were seeded at 60-80% confluency per well in 96-well cell culture plates. After overnight incubation at 37° C. 5% CO2, cells were treated with compounds and vehicle at 37° C. for 2 hours. […] All measurements where at least done in duplicates and confirmed by independent repetition.
Alternatively pAKT-S473 was measured using the “Akt Duplex” of the MULTI-SPOT® Assay System (Fa. Meso Scale Discovery, Cat# N41100B-1) following manufacturers instructions. Each assay used 20 μg of protein extract and measured total AKT and p-AKT content simultaneously in one well. All measurements where at least done in duplicates and confirmed by independent repetition. Values for P-AKT are expressed as percentage of P-AKT level compared to total-AKT content of the extracts.

KPL-4 cells = experiment: Tumor cell proliferation assay (CellTiter-Glo); type: cell-based; conditions: KPL4; 72 h drug exposure
Experimental: Compounds were tested in a cell-based assay that measures the capacity of the compounds to inhibit tumour cell proliferation following a 72 h drug exposure. Cell viability is determined using CellTiter-Glow® (CTG, Promega, cat# G757112/3). The CellTiter-Glo® Luminescent Cell Viability Assay is a homogeneous method to determine the number of viable cells in culture. Detection is based on using the luciferase reaction to measure the amount of ATP from viable cells. The amount of ATP in cells correlates with cell viability. Within minutes after a loss of membrane integrity, cells lose the ability to synthesize ATP, and endogenous ATPases destroy any remaining ATP; thus the levels of ATP fall precipitously.
Cells were plated at 3000-5000 cells/well (depending on the cell lines) in 90 μL growth medium on MTPs (Corning; #3603, black plate, clear flat bottom). For each cell line assayed, cells were plated onto a separate plate for determination of […] at t=0 hour and t=72 hour time points. Following overnight incubation at 37° C., chemiluminescence values for the t=0 samples were determined after adding 10 μl medium and 100 μl CTG solution according to manufacture protocol. Plates for the t=72 hour time points were treated with compounds diluted into growth medium at ten times final concentration added in 10 μL to the cell culture plate. Cells were then incubated for 72 hours at 37° C. Chemiluminescence values for the t=72 hour samples were determined. For data analysis, briefly, data from 24 h plate where used to reflect 100% inhibition of growth (“Ci”) and DMSO control for uninhibited growth (“C0”) and analyzed using MTS software package for IC50 and Hill coefficient. Experiments were controlled using a reference compound as standard.

[2] = target: His-tagged human recombinant kinase full-length Akt1 (Homo sapiens (Human), UniProt P31749); experiment: Akt1 kinase assay (TR-FRET); type: biochemical; conditions: 10 μM ATP; median
Chain of His-tagged human recombinant kinase full-length Akt1 (P31749 whole entry): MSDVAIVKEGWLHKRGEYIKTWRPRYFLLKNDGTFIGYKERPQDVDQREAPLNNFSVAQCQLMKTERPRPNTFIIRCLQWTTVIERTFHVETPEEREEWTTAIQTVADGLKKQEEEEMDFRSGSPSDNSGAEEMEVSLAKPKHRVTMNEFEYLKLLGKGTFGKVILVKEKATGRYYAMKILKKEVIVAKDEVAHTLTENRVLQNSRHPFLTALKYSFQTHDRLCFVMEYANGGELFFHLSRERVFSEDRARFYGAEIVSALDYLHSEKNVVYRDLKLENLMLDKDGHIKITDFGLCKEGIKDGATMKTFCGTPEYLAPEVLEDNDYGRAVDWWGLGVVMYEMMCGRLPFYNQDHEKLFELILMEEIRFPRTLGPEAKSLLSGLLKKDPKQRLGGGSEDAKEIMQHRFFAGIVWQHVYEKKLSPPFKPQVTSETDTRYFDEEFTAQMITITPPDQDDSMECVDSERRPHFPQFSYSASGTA
From the text: Akt1 inhibitory activity of compounds of the present invention was quantified employing the Akt1 TR-FRET assay as described in the following paragraphs. His-tagged human recombinant kinase full-length Akt1 expressed in insect cells was purchased form Invitrogen (part number PV 3599). As substrate for the kinase reaction the biotinylated peptide biotin-Ahx-[…] (C-terminus in amide form) was used which can be purchased e.g. from the company Biosynthan GmbH (Berlin-Buch, Germany).
(§1) For the assay 50 nl of a 100 fold concentrated solution of the test compound in DMSO was pipetted into a black low volume 384 well microtiter plate (Greiner Bio-One, Frickenhausen, Germany), 2 μl of a solution of Akt1 in assay buffer [50 mM TRIS/HCl pH 7.5, 5 mM MgCl2, 1 mM dithiothreitol, 0.02% (v/v) Triton X-100 (Sigma)] were added and the mixture was incubated for 15 min at 22° C. to allow pre-binding of the test compounds to the enzyme before the start of the kinase reaction. Then the kinase reaction was started by the addition of 3 μl of a solution of adenosine-tri-phosphate (ATP, 16.7 μM=>final conc. in the 5 μl assay volume is 10 μM) and substrate (1.67 μM=>final conc. in the 5 μl assay volume is 1 μM) in assay buffer and the resulting mixture was incubated for a reaction time of 60 min at 22° C. The concentration of Akt1 in the assay was adjusted depending of the activity of the enzyme lot and was chosen appropriate to have the assay in the linear range, typical enzyme concentrations were in the range of about 0.05 ng/μl (final conc. in the 5 μl assay volume).
(§2) The reaction was stopped by the addition of 5 μl of a solution of HTRF detection reagents (200 nM streptavidine-XL665 [Cisbio] and 1.5 nM anti-phosho-Serine antibody [Millipore, cat. #35-001] and 0.75 nM LANCE Eu-W 1024 labeled anti-mouse IgG antibody [Perkin Elmer]) in an aqueous EDTA-solution (100 mM EDTA, 0.1% (w/v) bovine serum albumin in 50 mM HEPES/NaOH pH 7.5).
(§3) The resulting mixture was incubated 1 h at 22° C. to allow the binding of the biotinylated phosphorylated peptide to the streptavidine-XL665 and the antibodies. Subsequently the amount of phosphorylated substrate was evaluated by measurement of the resonance energy transfer from the anti-mouse-IgG-Eu-Chelate to the streptavidine-XL665. Therefore, the fluorescence emissions at 620 nm and 665 nm after excitation at 350 nm was measured in a HTRF reader, e.g. a Rubystar (BMG Labtechnologies, Offenburg, Germany) or a Viewlux (Perkin-Elmer). The ratio of the emissions at 665 nm and at […] was taken as the measure for the amount of phosphorylated substrate. The data were normalised (enzyme reaction without inhibitor=0% inhibition, all other assay components but no enzyme=100% inhibition).

[3] = target: His-tagged human recombinant kinase full-length Akt2 (Homo sapiens (Human), UniProt P31751); experiment: Akt2 kinase assay (TR-FRET); type: biochemical; conditions: 10 μM ATP; median
Chain of His-tagged human recombinant kinase full-length Akt2 (P31751 whole entry): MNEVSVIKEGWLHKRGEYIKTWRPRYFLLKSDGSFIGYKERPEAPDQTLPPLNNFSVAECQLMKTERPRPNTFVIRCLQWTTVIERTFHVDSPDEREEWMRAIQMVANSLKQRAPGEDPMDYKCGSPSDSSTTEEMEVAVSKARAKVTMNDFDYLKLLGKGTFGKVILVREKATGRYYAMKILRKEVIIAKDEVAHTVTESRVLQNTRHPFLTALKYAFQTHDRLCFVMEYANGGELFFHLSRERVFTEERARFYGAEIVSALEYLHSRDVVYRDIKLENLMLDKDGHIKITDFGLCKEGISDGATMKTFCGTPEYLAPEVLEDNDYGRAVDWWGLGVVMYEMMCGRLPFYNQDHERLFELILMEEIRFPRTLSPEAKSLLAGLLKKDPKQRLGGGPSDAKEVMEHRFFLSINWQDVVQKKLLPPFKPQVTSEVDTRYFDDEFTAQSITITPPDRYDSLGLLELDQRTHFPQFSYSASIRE
From the text: Akt2 inhibitory activity of compounds of the present invention was quantified employing the Akt2 TR-FRET assay as described in the following paragraphs.
His-tagged human recombinant kinase full-length Akt2 expressed in insect cells and activated by PDK1 was purchased form Invitrogen (part number PV 3975). As substrate for the kinase reaction the biotinylated peptide biotin-Ahx-[…] (C-terminus in amide form) was used which can be purchased e.g. from the company Biosynthan GmbH (Berlin-Buch, Germany).
as §1, with “Akt2” for “Akt1”, “0.2” for “0.05”
as §2, with “0.1%/w/v\” for “0.1% (w/v)”
as §3, with “TR-FRET” for “HTRF”

Q: For `Cc1nc2cc(-c3ccccc3)c(-c3ccc(C4(N)CCC4)cc3)nn2c1-c1cn[nH]c1` [Example 5-2, 1-{4-[2-Methyl-7-phenyl-3-(1H-pyrazol-4-yl)-imidazo[1,2-b]pyridazin-6-yl]-phenyl}-cyclobutylamine], which IC50 [1] is on record?
A: 10000 nM

Q: And the IC50 (KPL-4 cells)?
A: 2750 nM

Q: What about the IC50 [2] of the same molecule?
A: 4780 nM

Q: Which IC50 (KPL-4 cells) does the source give for `NC1(c2ccc(-c3nn4c(-c5ccn[nH]5)cnc4cc3-c3ccccc3)cc2)CCC1` [Example 4-15, 1-{4-[7-Phenyl-3-(2H-pyrazol-3-yl)-imidazo[1,2-b]pyridazin-6-yl]-phenyl}-cyclobutylamine] here?
A: 1400 nM

Q: And the IC50 [2]?
A: 11 nM

Q: And the IC50 [3]?
A: 70 nM

Q: What does the source list for `Cc1nc2cc(-c3ccccc3)c(-c3ccc(C4(N)CCC4)cc3)nn2c1-c1cccc(C(N)=O)c1` [Example 5-0, 3-{6-[4-(1-Amino-cyclobutyl)-phenyl]-2-methyl-7-phenyl-imidazo[1,2-b]pyridazin-3-yl}-benzamide]?
A: IC50 [1]: 10000 nM; IC50 (KPL-4 cells): 3850 nM; IC50 [2]: 15000 nM; IC50 [3]: 16800 nM

Q: What does the source list for `NC1(c2ccc(-c3nn4c(-c5ccc(F)cc5)cnc4cc3-c3ccccc3)cc2)CCC1` [Example 4-3, 1-{4-[3-(4-Fluorophenyl)-7-phenyl-imidazo[1,2-b]pyridazin-6-yl]-phenyl}-cyclobutylamine]?
A: IC50 (KPL-4 cells): 1910 nM; IC50 [2]: 36 nM; IC50 [3]: 81 nM

Q: Which IC50 [1] does the source give for `CCc1c(C)nc2cc(-c3ccccc3)c(-c3ccc(C4(N)CCC4)cc3)nn12` [Example 13-0, 1-[4-(3-Ethyl-2-methyl-7-phenyl-imidazo[1,2-b]pyridazin-6-yl)-phenyl]-cyclobutylamine] here?
A: 10000 nM

Q: And the IC50 (KPL-4 cells)?
A: 2470 nM

Q: Which IC50 (KPL-4 cells) does the source give for `NC1(c2ccc(-c3nn4ccnc4cc3-c3ccccc3)cc2)CCC1` [Example 1-0, 1-[4-(7-Phenyl-imidazo[1,2-b]pyridazin-6-yl)-phenyl]-cyclobutylamine] here?
A: 3540 nM

Q: What about the IC50 [2] of the same molecule?
A: 246 nM

Q: What about the IC50 [3] of the same molecule?
A: 1440 nM

Q: Which IC50 (KPL-4 cells) does the source give for `COC(=O)c1cccc(-c2cnc3cc(-c4ccccc4)c(-c4ccc(C5(N)CCC5)cc4)nn23)c1` [Example 4-2, 3-{6-[4-(1-Amino-cyclobutyl)-phenyl]-7-phenyl-imidazo[1,2-b]pyridazin-3-yl}-benzoic acid methyl ester] here?
A: 2560 nM

Q: And the IC50 [2]?
A: 4 nM

Q: And the IC50 [3]?
A: 58 nM

Q: With `CS(=O)(=O)c1ccc(-c2cnc3cc(-c4ccccc4)c(-c4ccc(C5(N)CCC5)cc4)nn23)cc1` [Example 4-0, 1-{4-[3-(4-Methanesulfonylphenyl)-7-phenyl-imidazo[1,2-b]pyridazin-6-yl]-phenyl}-cyclobutylamine] as the molecule, how does the IC50 (KPL-4 cells) read?
A: 1850 nM

Q: What about the IC50 [2] of the same molecule?
A: 110 nM

Q: And the IC50 [3]?
A: 278 nM

Q: For `COc1cncc(-c2cnc3cc(-c4ccccc4)c(-c4ccc(C5(N)CCC5)cc4)nn23)c1` [Example 4-18, 1-{4-[3-(5-Methoxypyridin-3-yl)-7-phenyl-imidazo[1,2-b]pyridazin-6-yl]-phenyl}-cyclobutylamine], which IC50 (KPL-4 cells) is on record?
A: 1810 nM

Q: And the IC50 [2]?
A: 5 nM

Q: And the IC50 [3]?
A: 46 nM

Q: Which IC50 (KPL-4 cells) does the source give for `Cc1ccc(-c2cnc3cc(-c4ccccc4)c(-c4ccc(C5(N)CCC5)cc4)nn23)cc1` [Example 4-4, 1-[4-(7-Phenyl-3-p-tolyl-imidazo[1,2-b]pyridazin-6-yl)-phenyl]-cyclobutylamine] here?
A: 6000 nM

Q: And the IC50 [2]?
A: 44 nM

Q: What about the IC50 [3] of the same molecule?
A: 277 nM

Q: For `Cc1cnc2cc(-c3ccccc3)c(-c3ccc(C4(N)CCC4)cc3)nn12` [Example 2-0, 1-[4-(3-Methyl-7-phenyl-imidazo[1,2-b]pyridazin-6-yl)-phenyl]-cyclobutylamine], which IC50 [2] is on record?
A: 441 nM

Q: What about the IC50 [3] of the same molecule?
A: 1730 nM

Q: What does the source list for `NC1(c2ccc(-c3nn4c(-c5ccc6cn[nH]c6c5)cnc4cc3-c3ccccc3)cc2)CCC1` [Example 4-16, 1-{4-[3-(1H-indazol-6-yl)-7-phenyl-imidazo[1,2-b]pyridazin-6-yl]-phenyl}-cyclobutylamine]?
A: IC50 (KPL-4 cells): 5170 nM; IC50 [2]: 11 nM; IC50 [3]: 22 nM

Q: What does the source list for `N#Cc1ccc(-c2cnc3cc(-c4ccccc4)c(-c4ccc(C5(N)CCC5)cc4)nn23)cc1` [Example 4-1, 4-{6-[4-(1-Amino-cyclobutyl)-phenyl]-7-phenyl-imidazo[1,2-b]pyridazin-3-yl}-benzonitrile]?
A: IC50 (KPL-4 cells): 2030 nM; IC50 [2]: 129 nM; IC50 [3]: 136 nM
